Results on 7 compounds are retold here after patent publication US8859503B2, “Methods and compositions targeting viral and cellular ITAM motifs, and use of same in identifying compounds with therapeutic activity” (priority 2005, dated 2014).

“Also recorded” adds a separate entry of the source. Ends that are not written are not given here. * marks the point of attachment. Biotin = O=C1N[C@H]2[C@H](CS[C@H]2CCCCC(=O)*)N1

One data set has as its target T1, Syk-GFP (Mus musculus, UniProt P48025).
T1 construct: host or cells: Human 293T cells, transient transfection
As to the kind of experiment: Co-localization of dsRed peptide chimeras with Syk-GFP in 293T cells by confocal microscopy. It is filed as cell-based. The following applies: transiently transfected human 293T cells. An excerpt: Peptide conjugates were produced by QuikChange XL® kit from Stratagene. The dsRed2-C1 construct (BD Clontech) was modified using the following primers: dsRed.YVLL: 5′-[…]-3′ (SEQ ID No 42); and 5′-[…]-3 (SEQ ID No 43).
dsRed.KRPPYVLL: 5′-[…]-3′ (SEQ ID No 44); and 5′-[…]-3′ (SEQ ID No 45). The Syk-eGFP construct was a provided by Dr. Robert Geahlen (Purdue University).
For laser scanning microscopy a Zeiss LSM510 META laser scanning confocal module on a Zeiss Axiovert 200M inverted microscope was used. Objective used: C-APO 40×/1.2 water DIC. Lasers: 488 nm laser line from Argon laser (30 mW) for eGFP excitation; 543 nm laser line from HeNe laser (1 mW) for dsRed excitation. Analysis was performed on Zeiss LSM510 META v3.2 software.

Data set [1] is described as follows: Water solubility of the ITAM fragment. It is filed as physicochemical.
The target in another data set is T2, Syk (Mus musculus, UniProt P48025).
T2 construct: Whole cell lyastes of Bal-17 B cells (3×10^7) were used; endogenous in cells; host or cells: Bal-17 B cells (whole cell lysate)
As to the kind of experiment: Peptide:Syk binding assay (biotin-peptide pull-down from Bal-17 B cell lysates). The conditions noted are these: peptide 50 μM; Bal-17 whole cell lysates; n=3. As to the method: Whole cell lyastes of Bal-17 B cells (3×10^7) were used for quantification of ITAM peptide interactions. Equivalent cell lysates were mixed with either biotin-KRPPAVLL (control peptide; SEQ ID No 46) or biotin-KRPPYVLL (ITAM peptide; SEQ ID No 47) in concentration between 10-50 μM. Pull-downs were performed with Immobilized Neutravidin Protein (Pierce), as previously described. The resulting lysate pull-downs were run on SDS-PAGE were detected by Western blotting with rabbit anti-Syk antibody (N-19, Santa Cruz). Donkey anti-rabbit IgG-alkaline phosphatase conjugated antibody was used as a secondary antibody (Jackson ImmunoResearch Laboratories). For development and quantification, an ECF substrate was used followed by a scan using Storm 860 and analysis by ImageQuant 5.2 (all obtained from Amersham Biosciences).

The test system of data set [2] is Env-expressing NMuMG cells. In words: Three-dimensional Matrigel cultures of MMTV Env-expressing NMuMG cells (acinar structure morphology/size). It is filed as cell-based, murine. How it is done:
NMuMG cells (5×10^3 cells per chamber) were cultured on Matrigel® (BD Biosciences) cushions. Assay medium (DMEM/F12 supplemented with 2% donor horse serum, 10 μg/ml insulin, 1 ng/ml cholera toxin, 100 μg/ml hydrocortisone, 50 U/ml penicillin, and 50 μg/ml streptomycin) containing 2% Matrigel was replaced every 4 days. The structures were analyzed, at a magnification of 20, on a Zeiss Axiovert 200M equipped with PCO SensiCam video camera and Slidebook® software (Intelligent Imaging Innovations). Cell staining was performed with rat anti-human Keratin-18 (Lab Vision), rat anti-human E-cadherin and goat anti-rat IgG-FITC conjugated antibodies (Jackson ImmunoResearch Laboratories), or goat anti-rat IgG-Alexa-555 conjugated antibodies (Molecular Probes). Quantification of structure size was performed using a 10×50-μm grid reticule (Fisher Scientific) and 20-100 structures were counted from each chamber. The inhibitors PP2 and Piceatannol (EMD) were added on day 3 of culture, and pictures were taken on day 6. In apoptosis assays, TNF (R&D Systems) or TRAIL (BIOMOL Research Laboratories, Inc) were added on day 5 of culture, and pictures were taken on day 6. TUNEL assay was performed using a kit from Roche Applied Science (Indianapolis, Ind.).
NmuMG (wild-type or Env-expressing) or Mm5MT cells (10^4) were incubated on Matrigel (BD Labware) for six days, as described previously. Cells were treated with or without ITAM peptide (10 μM) or the Syk inhibitors piceatannol (1 μg/ml) and SI-31 (100 nM) (EMD). The acinar structures were analyzed and captured, at a magnification of 20×, on a Zeiss Axiovert 200M equipped with PCO SensiCam video camera and Slidebook v4 software (Intelligent Imaging Innovations). Three-dimensional structures >50 μm were considered enlarged. Data shown is based on size of 50 random acini.

The next data set relates to Mm5MT cells. As to the kind of experiment: Three-dimensional Matrigel cultures of MMTV+ Mm5MT tumor cells. It is filed as cell-based. The following applies: for reversion to round 3D phenotype: six days. How it is done: NmuMG (wild-type or Env-expressing) or Mm5MT cells (10^4) were incubated on Matrigel (BD Labware) for six days, as described previously. […] The acinar structures were analyzed and captured, at a magnification of 20×, on a Zeiss Axiovert 200M equipped with PCO SensiCam video camera and Slidebook v4 software (Intelligent Imaging Innovations). Three-dimensional structures >50 μm were considered enlarged. Data shown is based on size of 50 random acini.

The test system of the next data set is mouse splenic B cells. In words: B lymphocyte stimulation and proliferation ([3H] thymidine incorporation). The conditions noted are these: 20 μM peptide. It is filed as cell-based. How it is done: Proliferation of mouse splenic B cells: cells (5×10^5) were incubated for 48 h in the presence or absence of 20 μM peptide and stimulated with 10 μg/ml anti-BCR antibodies (Jackson ImmunoResearch Laboratories), LPS (Sigma) or anti-CD40 antibodies (BD Pharmingen). [^3H] Thymidine incorporation (1 μCi/well) was measured in the last 4 h of the experiment.

The subject of data set [3] is NIH3T3 cells expressing the ITAM-containing MAHB chimera. As to the kind of experiment: Soft agar colony formation assay of NIH3T3 cells expressing the ITAM-containing MAHB chimera. It is filed as cell-based, murine. As to the method: NIH3T3 cells expressing the ITAM-containing MAHB chimera (1×10^4) were suspended in 0.3% agar in DMEM containing 10% FBS. Cells from each transduction group were plated in 6-well plates pre-coated with 0.6% agar base in DMEM containing 10% FBS. Cells were fed with fresh top agar (0.3% agar in DMEM with 10% FBS, with or without ITAM peptide) every 5 days. Colonies were counted and measured using a graduated reticule under microscope at 10× magnification on day 21.

Data set [4] has as its system ITAM-based BCR signaling (tyrosine phosphorylation) in splenic B cells. As to the kind of experiment: Western blotting for tyrosine phosphorylation after anti-BCR stimulation. It is filed as cell-based, mouse. How it is done: Splenic B cells (10^7) were pre-incubated with 0-100 μM ITAM peptide for 3 h at 37° C. and then stimulated with anti-BCR antibodies as above for further 5 min. Lysates (20 μg/lane) were run on SDS-PAGE, blotted and detected with anti-phosphotyrosine antibody (4G10-HRP; Upstate Biotech). Molecular weights shown are based on the molecular weight markers.
For orientation: A western blot detects proteins with antibodies after separation by electrophoresis.

In another data set the test system is RBL-2H3 cells. As to the kind of experiment: FcεR1-mediated degranulation of RBL-2H3 cells (hexosaminidase activity). It is filed as cell-based. The following applies: ITAM peptide 25 μM; anti-DNP IgE 1 μg/ml, DNP-HSA 10 ng/ml. As to the method:
The effect of ITAM peptide on mast cell function was evaluated by degranulation induced by FcεR1 cross-linking. RBL-2H3 cells (5×10^4) were incubated overnight with anti-DNP IgE (1 μg/ml). Subsequently, degranulation was induced with DNP-HSA (10 ng/ml, 2 h), in the presence or absence of ITAM peptide (25 μM). Degranulation, as detected by hexosaminidase activity, is depicted as percent of maximal activity obtained from whole cell lysates.

T1 sequence (P48025 whole entry): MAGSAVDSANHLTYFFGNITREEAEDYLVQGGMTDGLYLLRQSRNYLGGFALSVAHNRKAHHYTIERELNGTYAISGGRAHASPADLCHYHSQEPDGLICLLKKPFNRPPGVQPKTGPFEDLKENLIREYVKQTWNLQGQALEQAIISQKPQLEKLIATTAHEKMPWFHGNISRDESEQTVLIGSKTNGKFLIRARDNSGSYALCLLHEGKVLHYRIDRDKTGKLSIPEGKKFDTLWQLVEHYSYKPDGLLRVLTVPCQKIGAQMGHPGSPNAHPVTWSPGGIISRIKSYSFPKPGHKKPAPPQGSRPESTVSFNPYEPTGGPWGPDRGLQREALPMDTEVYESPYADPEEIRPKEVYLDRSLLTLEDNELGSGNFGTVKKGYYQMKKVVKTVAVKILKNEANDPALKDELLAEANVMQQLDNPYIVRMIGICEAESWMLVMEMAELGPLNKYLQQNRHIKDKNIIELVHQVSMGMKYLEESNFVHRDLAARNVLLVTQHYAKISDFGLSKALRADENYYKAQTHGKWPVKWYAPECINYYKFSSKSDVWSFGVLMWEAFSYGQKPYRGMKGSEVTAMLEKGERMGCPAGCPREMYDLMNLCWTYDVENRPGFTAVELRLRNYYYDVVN
T2 sequence (P48025 whole entry): as above

For “dsRed.KRPPYVLL: dsRed chimera protein with the entire 8 amino acid ITAM fragment (dsRed-KRPPYVLL)”, the “co-localization with Syk-GFP” value with Syk-GFP is on record as “co-localization was still detected”.

Turning to Ac-KRPPYVLL [KRPPYVLL], the water solubility result in data set [1] is listed as “water-soluble”.

Biotin-KRPPYVLL: the “Syk detected in pull-down, over control peptide biotin-KRPPAVLL” value at Syk is listed as 1.5- to 2 fold.

With `Cn1cc(C=C2C(=O)Nc3ccc(S(N)(=O)=O)cc32)c2ccccc21` [SI-31, reference compound], the “phenotypic reversal of transformed phenotype to normal round acini” value (“phenotypic reversal” below) in [2] (SI-31 100 nM, six days) is listed as “effective in phenotypic reversal”. For the same compound, the “reversion to round 3D phenotype” value with Mm5MT cells (SI-31 100 nM) was “readily apparent”.

Regarding `CC(C)(C)n1nc(-c2ccc(Cl)cc2)c2c(N)ncnc21` [PP2], the “morphological changes associated with Env transformation” value in data set [2] (Env+ NMuMG 3D cultures, inhibitor 500 ng/ml added on day 3, imaged on day 6) is listed as “sufficient to block morphological changes associated with Env transformation”. Also, in data set [2] (Src inhibitor PP2, concentration not printed for this experiment), the “phenotypic reversal” value is “effective in phenotypic reversal”.

Take “dsRed.YVLL: dsRed chimera protein with 4 amino acids (YVLL) of the ITAM fragment (dsRed-YVLL)”: the “co-localization with Syk-GFP” value in the data set with Syk-GFP is “co-localization was readily observed”.

As for Ac-KRPPYVLL-OH [ITAM peptide], in the data set with mouse splenic B cells (48 h, 10 μg/ml anti-BCR antibodies), the “BCR-induced proliferation ([3H] thymidine incorporation)” value is given as “inhibition of BCR-induced proliferation; also recorded: highly significant (p=0.0017)”. Besides, the “stimulation of B lymphocytes by LPS (non-ITAM)” value in the data set on mouse splenic B cells (LPS 20 μg/ml, data not shown) is listed as “no significant effect”. The “stimulation of B lymphocytes through CD40 (non-ITAM)” value in the data set on mouse splenic B cells (anti-CD40 5 μg/ml, data not shown) is listed as “no significant effect”. Moreover, the “size and number of colonies formed” value in [3] (ITAM peptide 0-20 μM added with feeding media, colonies >75 μm scored on day 21) was “reduction in both size and number of colonies formed”. The “colony formation of ITAM+ fibroblasts” value in data set [3] (chronic treatment with ITAM peptide in feeding media) is listed as “sufficient to reduce colony formation”. Also, the “tyrosine phosphorylation associated with ITAM-based BCR signaling” value in data set [4] (higher concentrations of the peptide) was “neither stimulatory nor inhibitory”; in data set [4] (relevant peptide concentrations (0-100 μM tested), 3 h pre-incubation, anti-BCR 5 min, data not shown), “visibly reduced; also recorded: Inhibition of tyrosine phosphorylation was confirmed”. Besides, in the data set with RBL-2H3 cells, the “FcεRI-induced degranulation (hexosaminidase activity)” value is listed as “significantly inhibited; also recorded: significant reduction (p=0.093)”. In addition, the “phenotypic reversal” value in data set [2] (ITAM peptide 10 μM, Env-expressing NMuMG on Matrigel six days) was “as effective in phenotypic reversal as the Src inhibitor PP2 and Syk inhibitors Piceatannol and SI-31”. In addition, in the data set on Mm5MT cells (3D cultures on Matrigel six days, treated with ITAM peptide, Src or Syk inhibitors), the Mm5MT acini phenotype result is reported as “exhibited a more round phenotype”. Also, in the data set on Mm5MT cells (ITAM peptide 20 μM (5-20 μM tested)), the “reversion to round 3D phenotype” value is “readily apparent”.
